Measurements from patent US10322123B2, “Compound for anti-cancer therapy that acts by targeting GOF mutant P53 and stimulates P73 to restore the P53 pathway signaling” (The Penn State Research Foundation, priority 2014, dated 2019).

Tests used:
[1] = test system: Wi38 normal human fibroblast cells; experiment: Flow cytometry sub-G1 DNA content; assay type: cell-based; settings: 50 μM, 72 hr
Method: (§1) Cells were treated with NSC59984 or other drugs. Seventy-two hours after treatment, the cells were fixed with ethanol and stained with Propidium Iodide (PI). The samples were then subjected to analysis by an Epics Elite flow cytometer to measure the DNA content of the stained cells.

[2] = test system: MRC5 normal human fibroblast cells; experiment: Flow cytometry sub-G1 DNA content; assay type: cell-based; settings: 50 μM, 72 hr
Method: as §1

[3] = test system: p21, Puma and Noxa mRNA; experiment: qRT-PCR of p53 target gene mRNA; assay type: cell-based, human
Text: Total RNA was isolated from cells using RNeasy mini kit (Qiagen, USA) by the recommended protocol. Reverse transcription used SuperScript II first-strand synthesis system (Invitrogen, USA) with random primers. qRT-PCR reactions used SYBR green master mix with the Real-Time PCR Detection systems (Bio-Rad, USA). Primers for qRT-PCR are (forward) 5′-[…]-3′ (SEQ ID NO: 1) and (reverse) 5′-[…]-3′ (SEQ ID NO: 2) for p53, (forward) 5′-TGTCCGTCAGAACCCATG-3′ (SEQ ID NO: 3) and (reverse) 5′-[…]-3′ (SEQ ID NO: 4) for p21, (forward) 5′-[…]-3′ (SEQ ID NO: 5) and (reverse) 5′-[…]-3′ (SEQ ID NO: 6) for Puma, (forward) 5′-[…]-3′ (SEQ ID NO: 7) and (reverse) 5′-[…]-3′ (SEQ ID NO: 8) for Noxa, (forward) 5′-CTGGGCTACACTGAGCACC-3′ (SEQ ID NO: 9) and (reverse) 5′-[…]-3′ (SEQ ID NO: 10) for Gapdh. Target gene expression levels were normalized with Gapdh.

[4] = target: T1, wild-type p53 protein epitope (Homo sapiens, UniProt P04637, R175H); experiment: Wild-type p53 conformation with Pab1620 antibody; assay type: cell-based; settings: RXF393 cells, 24 hr
T1 construct: endogenous in cells; host or cells: RXF393
Method: Five hundred micrograms of cell lysate were incubated with 2 μg of antibody overnight at 4° C. Then, 25 μl of protein A-Sepharose beads were added to the lysates. The immunoprecipitated proteins were eluted from protein A-Sepharose beads by boiling with 2× sample buffer and subjected to SDS-PAGE.

[5] = test system: DLD-1 xenograft tumors; experiment: In vivo anti-tumor assay, xenograft; design: species or system mice; settings: 45 mg/kg i.p. every 5 days
Method: (§2) CRL nude mice (female, 4-6 weeks old) were inoculated s.c. in the opposite flanks with 5 million DLD-1 or p73 knock-down DLD-1 cells in an equal volume of martrigel. Treatment with NSC59984 (i.p. injection) was initiated when the tumor masses reached a size of 3-5 mm. NSC59984 (45 mg/kg) was injected by i.p. route every 5 days. Fifteen days after treatment, the mice were euthanized using an institutional animal care and use committee-approved animal protocol.

[6] = test system: p73 knock-down DLD-1 xenograft tumors; experiment: In vivo anti-tumor assay, xenograft; design: species or system mice; settings: 45 mg/kg i.p. every 5 days
Method: as §2

[7] = test system: PARP cleavage; experiment: Cleaved PARP Western blot; assay type: cell-based, human; settings: for PARP cleavage: 30 hours
Method: (§3) Proteins were extracted from cells and electrophoresed through 4-12% SDS-PAGE then transferred to PVDF membranes. The primary antibodies indicated in the figures were incubated with the transferred PVDF in blocking buffer at 4° C. overnight. Antibody binding was detected on PVDF with appropriate IRDye-secondary antibodies (LI-COR Biosciences, USA) by the ODYSSEY infrared imaging system.

[8] = test system: cancer cells; experiment: Colony formation assay; assay type: cell-based, human; settings: treated 3 days, then drug-free medium two weeks
Method: Franken N A, et al., Nat Protoc 2006; 1: 2315-9). Cancer cells were plated at 500 cells/well on 6-well plate, and then treated with NSC59984 next day. At 3 days after NSC59984 treatment, cancer cells were cultured with drug-free complete medium for two weeks with fresh medium changed every 3 days. Cells were fixed with 10% formalin and stained with 0.05% crystal violet at the end of two weeks period of cell culture.

[9] = target: T2, p73 (Homo sapiens, UniProt O15350); experiment: p73 protein level Western blot; assay type: cell-based; settings: mutant p53-expressing tumor cells, 8 hours
T2 construct: endogenous in cells
T2 sequence (O15350 whole entry): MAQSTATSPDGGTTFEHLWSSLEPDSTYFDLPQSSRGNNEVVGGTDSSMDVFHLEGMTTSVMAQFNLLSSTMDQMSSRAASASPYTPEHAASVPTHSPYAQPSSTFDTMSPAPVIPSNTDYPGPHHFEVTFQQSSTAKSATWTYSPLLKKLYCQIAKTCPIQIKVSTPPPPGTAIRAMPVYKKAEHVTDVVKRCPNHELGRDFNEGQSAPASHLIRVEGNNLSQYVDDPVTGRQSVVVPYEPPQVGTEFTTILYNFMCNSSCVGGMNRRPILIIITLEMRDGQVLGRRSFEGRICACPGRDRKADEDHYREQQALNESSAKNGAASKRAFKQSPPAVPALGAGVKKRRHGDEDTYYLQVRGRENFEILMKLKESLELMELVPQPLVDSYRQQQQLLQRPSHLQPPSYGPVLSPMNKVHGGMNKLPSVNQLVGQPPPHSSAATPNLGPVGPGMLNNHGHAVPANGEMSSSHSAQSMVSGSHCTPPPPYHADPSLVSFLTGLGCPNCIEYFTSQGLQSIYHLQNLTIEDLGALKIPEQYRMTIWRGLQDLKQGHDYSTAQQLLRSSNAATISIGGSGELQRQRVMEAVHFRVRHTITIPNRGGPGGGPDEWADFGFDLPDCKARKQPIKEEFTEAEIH
Method: as §3

[10] = test system: DLD-1 cells; experiment: CellTiter-Glo cell viability, DLD-1 with Ad-p73 or p73 knock-down; assay type: cell-based, human; settings: for Combination index (CI): DLD-1
Method: Cells at a concentration of 5000 cells/well in 96-well plates were treated with NSC59984 or other drugs. At seventy-two hours after treatment, cells were mixed with an equal volume of CellTiter-Glo reagents (Promega, Madison, Wis.), following the manufacturer's protocol, and bioluminescence imaging was measured using the IVIS imager.
Cells were infected with retrovirus containing the pSIREN-REtrpcQ retroviral vector recombinant with TAp73 RNAi. Cells were cultured with blasticidin for several weeks, and blasticidin-resistant clones were selected. Knock-down of p73 was detected by measuring p73 protein levels by Western blot with anti-p73 antibody (Bethyl laboratories Inc. USA).
Cells were infected with an adenovirus that expresses p73-beta (Ad-p73) or wild type p53 (Ad-p53) and cultured for 24 hr, as previously described (Huang C, et al., Cancer Biol Ther 2009; 8: 2186-93). Then, the infected cells were cultured in fresh medium and subjected to different treatments.
All results were obtained from triplicate experiments, unless other indicated. Statistical analyses were performed using PRISM4 Software (GraphPad Software, Inc., San Diego, Calif., USA), ANOVA and Student's t-test. Statistical significances were determined by p<0.05. Combination indices were calculated using the Chou-Talalay method with CalcuSyn software (biosoft).

## CN1CCN(C(=O)/C=C/c2ccc([N+](=O)[O-])o2)CC1 [NSC59984, (E)-1-(4-methylpiperazin-1-yl)-3-(5-nitrofuran-2-yl)prop-2-en-1-one]
[1]
  DNA content in Sub-G1: 12%
[2]
  DNA content in Sub-G1: 30%
[3]; 25 μM in HCT116 and 12 μM in p53-null HCT116 cells
  Noxa mRNA: slightly increased
[3]; HCT116 and p53-null HCT116 cells
  Puma and p21 mRNA level: not up-regulated
[3]; SW480 and DLD-1 cells, 3 hours, dose-dependent
  mRNA levels of p21, Noxa and Puma: significantly increased
[4]
  immunohistochemistry staining with Pab1620: no staining
  immunoprecipitation of p53 protein with Pab1620 antibody: no p53 protein bound
[5]; compared to DMSO control
  xenograft tumor growth: significantly repressed
[5]; day 15
  tumor weight reduced by: 34%
[6]
  tumor growth suppression: not observed
[6]; day 15
  tumor weight reduced by: 18%
[7]; cancer cells, dose-dependent
  PARP cleavage: increased
[7]; normal cells, same doses
  PARP cleavage: not observed
[7]; p73 knock-down DLD-1 cells, 24 hours
  NSC59984-induced PARP cleavage: partially abrogated
[8]
  colony numbers: significantly reduced
[9]
  p73 protein levels: not found to be increased
[10]; Ad-P73 dilution 1:1k, NSC59984 12 μM
  Combination index (CI): 0.273
[10]; Ad-P73 dilution 1:1k, NSC59984 25 μM
  Combination index (CI): 0.12
[10]; Ad-P73 dilution 1:1k, NSC59984 50 μM
  Combination index (CI): 0.033
[10]; Ad-P73 dilution 1:2k, NSC59984 12 μM
  Combination index (CI): 0.357
[10]; Ad-P73 dilution 1:2k, NSC59984 25 μM
  Combination index (CI): 0.127
[10]; Ad-P73 dilution 1:2k, NSC59984 50 μM
  Combination index (CI): 0.039
[10]; Ad-P73 dilution 1:4k, NSC59984 12 μM
  Combination index (CI): 0.303
[10]; Ad-P73 dilution 1:4k, NSC59984 25 μM
  Combination index (CI): 0.121
[10]; Ad-P73 dilution 1:4k, NSC59984 50 μM
  Combination index (CI): 0.037
[10]; Ad-P73 dilution 1:8k, NSC59984 12 μM
  Combination index (CI): 0.319
[10]; Ad-P73 dilution 1:8k, NSC59984 25 μM
  Combination index (CI): 0.115
[10]; Ad-P73 dilution 1:8k, NSC59984 50 μM
  Combination index (CI): 0.036
[10]; Ad-P73 dilution 1:16k, NSC59984 12 μM
  Combination index (CI): 0.239
[10]; Ad-P73 dilution 1:16k, NSC59984 25 μM
  Combination index (CI): 0.098
[10]; Ad-P73 dilution 1:16k, NSC59984 50 μM
  Combination index (CI): 0.027
[10]; Ad-P73 dilution 1:32k, NSC59984 12 μM
  Combination index (CI): 0.636
[10]; Ad-P73 dilution 1:32k, NSC59984 25 μM
  Combination index (CI): 0.282
[10]; Ad-P73 dilution 1:32k, NSC59984 50 μM
  Combination index (CI): 0.078
[10]; DLD-1 cells infected with Ad-p73
  cell viability, combination with exogenous p73: synergized
[10]; p73 knock-down DLD-1 cells compared with DLD-1 cells, 72 hr
  cell viability: higher
